Assay results taken from patent publication US20220009920A1 (GB005, Inc., priority 2020, published 2022).

Experiments:
Assay in all cases: Large panel kinase profiling
Type in all cases: biochemical
Settings in all cases: 1 μM test article, 1 mM ATP
ULK2 = target: T1, ULK2 (Homo sapiens, UniProt Q8IYT8)
T1 construct: AssayQuant Technologies, Inc. (contract laboratory that ran the panel)
T1 sequence (Q8IYT8 1-1036): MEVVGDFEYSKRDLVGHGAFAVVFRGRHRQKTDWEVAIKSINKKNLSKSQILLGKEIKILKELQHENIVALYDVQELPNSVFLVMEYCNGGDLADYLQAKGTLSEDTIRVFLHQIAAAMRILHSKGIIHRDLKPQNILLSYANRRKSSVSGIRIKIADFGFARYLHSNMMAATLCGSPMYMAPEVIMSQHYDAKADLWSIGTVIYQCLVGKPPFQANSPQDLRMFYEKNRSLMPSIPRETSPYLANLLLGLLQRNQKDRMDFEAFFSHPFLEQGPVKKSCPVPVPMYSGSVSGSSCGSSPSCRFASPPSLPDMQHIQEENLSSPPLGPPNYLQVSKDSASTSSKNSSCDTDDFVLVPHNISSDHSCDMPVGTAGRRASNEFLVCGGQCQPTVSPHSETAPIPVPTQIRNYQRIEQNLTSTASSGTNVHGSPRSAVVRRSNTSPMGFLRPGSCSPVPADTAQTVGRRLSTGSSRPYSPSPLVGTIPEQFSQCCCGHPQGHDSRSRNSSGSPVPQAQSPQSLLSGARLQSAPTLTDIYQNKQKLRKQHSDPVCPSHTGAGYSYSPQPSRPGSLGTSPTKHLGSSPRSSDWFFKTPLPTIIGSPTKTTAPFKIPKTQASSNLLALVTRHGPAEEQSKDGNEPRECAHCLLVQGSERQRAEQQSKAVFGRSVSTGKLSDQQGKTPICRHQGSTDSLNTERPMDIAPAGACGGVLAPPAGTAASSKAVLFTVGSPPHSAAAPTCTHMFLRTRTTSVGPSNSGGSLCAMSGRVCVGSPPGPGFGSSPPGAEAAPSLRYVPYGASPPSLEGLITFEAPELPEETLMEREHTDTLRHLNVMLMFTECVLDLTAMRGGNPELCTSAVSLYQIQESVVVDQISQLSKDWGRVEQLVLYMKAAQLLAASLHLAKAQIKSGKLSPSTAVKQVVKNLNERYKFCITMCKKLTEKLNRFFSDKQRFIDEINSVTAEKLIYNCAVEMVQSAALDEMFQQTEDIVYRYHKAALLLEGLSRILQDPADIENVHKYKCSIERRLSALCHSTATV
Method in brief: (§1)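 CSox-Sensor fluorescence readout; test article 1 μM, ATP 1 mM, 30° C.; kinetic reads at 1-min intervals, Ex 360/Em 485 nm.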

AAK1 = AAK1 (Homo sapiens, UniProt Q2M2I8)
Method in brief: as §1

NEK2 = target: T2, NEK2 (Homo sapiens, UniProt P51955)
T2 construct: AssayQuant Technologies, Inc. (assay service)
T2 sequence (P51955 1-445): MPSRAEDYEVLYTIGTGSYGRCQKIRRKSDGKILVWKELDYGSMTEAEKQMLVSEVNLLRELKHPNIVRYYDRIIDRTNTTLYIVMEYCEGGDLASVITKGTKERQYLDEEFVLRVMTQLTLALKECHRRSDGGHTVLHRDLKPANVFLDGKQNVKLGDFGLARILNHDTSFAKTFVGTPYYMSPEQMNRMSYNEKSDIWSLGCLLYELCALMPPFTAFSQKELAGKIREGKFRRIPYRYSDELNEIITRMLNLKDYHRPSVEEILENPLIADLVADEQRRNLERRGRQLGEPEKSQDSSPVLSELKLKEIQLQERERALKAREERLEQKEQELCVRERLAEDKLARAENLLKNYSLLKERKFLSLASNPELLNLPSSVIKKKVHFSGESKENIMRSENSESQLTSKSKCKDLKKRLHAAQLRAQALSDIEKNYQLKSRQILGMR
Method in brief: as §1

Sequence of AAK1 (Q2M2I8 whole entry): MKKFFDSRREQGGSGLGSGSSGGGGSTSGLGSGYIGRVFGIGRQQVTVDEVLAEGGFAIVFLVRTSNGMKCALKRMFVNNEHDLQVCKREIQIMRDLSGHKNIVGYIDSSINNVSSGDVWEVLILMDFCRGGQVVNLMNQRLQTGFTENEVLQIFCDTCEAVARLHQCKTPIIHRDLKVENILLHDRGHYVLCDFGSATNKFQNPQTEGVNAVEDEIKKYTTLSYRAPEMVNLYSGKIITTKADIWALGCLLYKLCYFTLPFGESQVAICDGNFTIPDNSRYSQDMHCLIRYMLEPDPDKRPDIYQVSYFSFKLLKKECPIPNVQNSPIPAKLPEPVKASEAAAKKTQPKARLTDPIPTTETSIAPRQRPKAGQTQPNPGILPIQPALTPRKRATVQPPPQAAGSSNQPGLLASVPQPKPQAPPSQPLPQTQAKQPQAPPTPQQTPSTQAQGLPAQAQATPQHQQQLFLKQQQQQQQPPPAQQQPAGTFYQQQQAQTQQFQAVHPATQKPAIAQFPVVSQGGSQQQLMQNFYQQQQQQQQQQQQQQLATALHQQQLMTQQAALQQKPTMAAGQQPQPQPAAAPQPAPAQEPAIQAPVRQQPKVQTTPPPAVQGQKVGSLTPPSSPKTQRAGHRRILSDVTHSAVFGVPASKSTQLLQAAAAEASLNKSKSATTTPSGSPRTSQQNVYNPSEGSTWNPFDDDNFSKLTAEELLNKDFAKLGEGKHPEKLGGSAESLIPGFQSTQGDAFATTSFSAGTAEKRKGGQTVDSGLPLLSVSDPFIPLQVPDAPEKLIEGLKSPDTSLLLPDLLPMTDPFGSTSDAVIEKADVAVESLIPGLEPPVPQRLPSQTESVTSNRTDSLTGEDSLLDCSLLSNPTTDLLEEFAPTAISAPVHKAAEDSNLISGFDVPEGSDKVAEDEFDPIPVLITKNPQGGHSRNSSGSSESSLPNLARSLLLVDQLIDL

## C=CC(=O)N1CCCC(c2c(F)cc(C(N)=O)c3[nH]c4c(c23)CCCCC4)C1 (single isomer, unassigned) [Compound 5-6]
ULK2
  inhibition at 1 µM: -17.5%
AAK1
  inhibition at 1 µM: -20.3%
NEK2
  inhibition at 1 µM: -26.5%

## C=CC(=O)N1CCC[C@@H](c2c(F)cc(C(N)=O)c3[nH]c4c(c23)CC2(CC4)CC2)C1 [Compound 6-2, (S)-5-(1-acryloylpiperidin-3-yl)-6-fluoro-1,2,4,9-tetrahydrospiro[carbazole-3,1′-cyclopropane]-8-carboxamide]
ULK2
  inhibition at 1 µM: -6.2%
AAK1
  inhibition at 1 µM: -15.7%
NEK2
  inhibition at 1 µM: -1.4%

## C=CC(=O)N1CCC[C@@H](c2c(F)cc(C(N)=O)c3[nH]c4c(c23)CCC4)C1 [Compound 10-2, (S)-8-(1-acryloylpiperidin-3-yl)-7-fluoro-1,2,3,4-tetrahydrocyclo-penta[b]indole-5-carboxamide]
ULK2
  inhibition at 1 µM: -5.8%
AAK1
  inhibition at 1 µM: -14.3%
NEK2
  inhibition at 1 µM: 10.6%
